Assay results as given in patent publication US20090012014A1, “Compound, Composition and a Process Thereof” (INDUS BIOTECH PVT. LTD, priority 2007, published 2009).
“And” between values parts separate entries of the source, which are not always exact repeats. Identical values can stand only once. Like-named read-outs stand apart in the source and are kept apart here. Marks after values point to notes of the source that are not given here.

How the values were obtained:
gastric mucosa = experiment: Gastric ulcerogenic effects after repeated oral administration; assay type: in vivo, male Swiss Wistar rats; details: for Mean score of Lesion intensity: 7 consecutive days
Excerpt: Gastric ulcerogenic effects of Test compound and celecoxib after repeated oral administration for 7 consecutive days to the male Swiss Wistar rats.
In the control group, structure of the gastric mucosa appears normal.

[1] = system: paw edema in Carrageenan model; experiment: Acute study: Carrageenan induced paw edema; assay type: in vivo, Swiss Wistar rats; details: paw volume at 3 hrs
Description: These tests are for the inhibition of inflammation caused by prostaglandins in short period of time. This can be tested in animal (Swiss Wistar rats) as per well known protocols which are treated with Carrageenan. This model tests out anti-inflammatory activity caused by prostaglandin inhibition. Celecoxib is given as a positive control to do a comparison and evaluate the efficacy of anti-inflammatory purified extract as described above in Prostaglandin inhibition in 3 hrs.
Paw Volume measured is compared with Control group and standard drug, celecoxib. Paw volume initial to the paw volume at 1 h, 2 h, 3 h is measured and peak inhibition, which is at 3 hrs is noted down. In this model efficacy as well as dosage of drug is arrived by considering peak % inhibition. […] This is also not statistically significant.

TNF-α = TNF-α level in serum of FCA induced arthritic rat; assay type: in vivo
Description: (§1) This activity mimics the onset of autoimmune damage to joints and tests the efficiency of drug against this damage. Leflunamide is taken as positive control. Here Swiss Wistar rats are treated with Freunds Complete Adjuvant (CFA) to induce chronic inflammation symptoms similar to rheumatis diseases. The symptoms appear by 13th day. The drug treatment is started from 13th day to 23rd day for 10 days.
Effect of Test compound and standard drug Celecoxib on TNF-α level in FCA induced arthritis rat. The serum from the FCA induced arthritic rat was examined for Tumor necrosis factor alpha. The experimental protocol was same as example no.

Cotton pellet Granuloma = experiment: Sub acute study: cotton pellet granuloma; assay type: in vivo, Swiss Wistar rats; details: dried pellet weight after 7 days
Description: This evaluates inflammation over a period of 7 days. This is done by classical animal model (in Swiss Wistar tats) of cotton pallet granuloma. Celecoxib is a positive control for comparison of the efficacy of Test Compound.
100 mg per kg is the optimal dose. A comparison is made with Celecoxib.

FCA induced arthritis = experiment: Chronic study: FCA (Freunds Complete Adjuvant) induced arthritis; assay type: in vivo, Swiss Wistar rats; details: for Anti-inflammatory activity (% Inhibition) in FCA induced arthritis Day 18: treatment from 13th day
Description: as §1
In addition, a disseminated arthritic reaction (secondary response) developed from […] alter FCA injection. The swelling was observed both in the injected paw and in the non-injected contra lateral paw. The reduction of the planter volume was statistically significant for both hind legs. The test compound gave a very impressive reduction of 52% at 100 mg per kg dose which is statistically significant. This compared very well with DMARD drug Leflunomide. However, Leflunomide is highly nephrotoxic and cannot be administered for a long time.

C-reactive protein = C-reactive protein test (CRP test kit) in FCA arthritis model; assay type: in vivo, Swiss Wistar rats; details: for C-reactive protein After 10 Day Treatment / C-reactive protein Before Treatment: CRP test kit, precipitate
Description: This activity mimics the onset of autoimmune damage to joints and tests the efficiency of drug against this damage. Leflunamide is taken as positive control. Here Swiss Wistar rats are treated with Freunds Complete Adjuvant (CFA) to induce chronic inflammation symptoms similar to rheumatis diseases. The symptoms appear by 13th day. The drug treatment is started from 13th day to 23rd day for 10 days. […] In this method the CRP test kit ([…], Dreadnought Trading Estate Bridgeport Dorset DT6 5BU UK) was used for the measurement of CRP. The results are expressed either […] or -ve depending on the formation of precipitate Normal range of CRP: up to 6 mg/L. Below this level is considered to be negative.

[2] = system: patients with rheumatoid arthritis
[3] = male, Swiss Wistar, rat, in vivo, po, 5 mg/kg, 7 days
[4] = out of the total 70 patients recruited

## Cc1ccc(-c2cc(C(F)(F)F)nn2-c2ccc(S(N)(=O)=O)cc2)cc1 [Celecoxib, reference compound]
Gastric mucosa; Dose 5 mg/kg p.o.
  Mean score of Lesion intensity: 1.6
Gastric mucosa; [3]
  Average of no. of ulcer per animal: 2
  No. of animals with ulcer: 2
  No. of animals with ulcer (%): 33.3%
  Ulcer Index (UI): 3.7
[1]; Dose 10 mg/kg
  Anti-inflammatory activity (% Inhibition) in Carrageenan model In 3 Hrs.: 45.2** %
TNF-α
  Concentration of TNF-α in pg/mL Day 0: 28.9 pg/mL
  Concentration of TNF-α in pg/mL Day 13: 47.9 pg/mL
TNF-α; Day 21
  Concentration of TNF-α in pg/mL Day 21: 33.6 pg/mL
Cotton pellet Granuloma; Dose 10 mg/kg
  Anti-inflammatory activity (% Inhibition) in Cotton pellet Granuloma: 43.2** %

## Cc1oncc1C(=O)Nc1ccc(C(F)(F)F)cc1 [Leflunamide, reference compound]
FCA induced arthritis; Dose 10 mg/kg
  Anti-inflammatory activity (% Inhibition) in FCA induced arthritis Day 18: 35.22* %
FCA induced arthritis; Dose 10 mg/kg, treatment 13th to 23rd day
  Anti-inflammatory activity (% Inhibition) in FCA induced arthritis Day 23: 76.55** %
C-reactive protein
  C-reactive protein After 10 Day Treatment: Negative (Normal range of CRP: up to 6 mg/L. Below this level is considered to be negative)
  C-reactive protein Before Treatment: Negative (Normal range of CRP: up to 6 mg/L. Below this level is considered to be negative)

## CC(COC1OC(CO)C(O)C(O)C1O)C(C)CC1(O)CC2CC3C4CC=C5CC(OC6OC(CO)C(O)C(O)C6OC6OC(C)C(O)C(O)C6O)CCC5(C)C4CCC3(C)C2C1C (stereo not shown) [Test compound]
[2]; 12 months
  HAQ (Health Assessment Questionnaire) 12 mths (mean): 4.4
  JCSW (Joint count swelling) 12 mths (mean): 1.6
[2]; 12 months, 16 mg per kg body weight
  JCPT (Joint Count Pain/Tenders) 12 mths (mean): 5.5
[2]; 12 months, FIG. 2, listed as test compound
  CRP (C Reactive Protein), nephlometry, over time: reduction
[2]; 12 months, FIG. 3, listed as test compound
  RF (Rheumatoid factor) Titre, nephlometry, over time: reduction
[2]; 12 months, Westergren
  ESR 12 mths (mean): 66
[2]; 12 months, scale 0-10 cms
  painVAS (pain visual analogue scale) 12 mths (mean): 3.6
  patGlobal (patient global assessment) 12 mths (mean): 3.4
  phyGlobal (physician global assessment) 12 mths (mean): 2.6
[2]; Baseline
  HAQ (Health Assessment Questionnaire) Baseline (mean): 8.8
  HDL BASELINE: 44.6
  LDL BASELINE: 117.08
[2]; Baseline ratio
  HDL/LDL BASELINE: 0.41
[2]; Baseline, 66 joints
  JCSW (Joint count swelling) Baseline (mean): 9.5
[2]; Baseline, 68 joints, 16 mg per kg body weight
  JCPT (Joint Count Pain/Tenders) Baseline (mean): 24.3
[2]; Baseline, Westergren
  ESR Baseline (mean): 61.4
[2]; Baseline, scale 0-10 cms
  painVAS (pain visual analogue scale) Baseline (mean): 6.6
  patGlobal (patient global assessment) Baseline (mean): 6.4
  phyGlobal (physician global assessment) Baseline (mean): 5.7
[2]; Patient No. 019
  Patients in Clinical Remission: Duration (Months): 8 Months
[2]; Patient No. 035*, ACR remission, ESR <30 mm
  Patients in Clinical Remission: Duration (Months): 3 Months
[2]; Patient No. 037*, ACR remission, ESR <30 mm
  Patients in Clinical Remission: Duration (Months): 3 Months
[2]; Patient No. 038*, ACR remission, ESR <30 mm
  Patients in Clinical Remission: Duration (Months): 3 Months
[2]; Patient No. 049
  Patients in Clinical Remission: Duration (Months): 5 Months
[2]; Patient No. 051
  Patients in Clinical Remission: Duration (Months): 2 Months
[2]; Patient No. 054*, ACR remission, ESR <30 mm
  Patients in Clinical Remission: Duration (Months): 3 Months
[2]; Patient No. 057
  Patients in Clinical Remission: Duration (Months): 6 Months
[2]; Patient No. 059
  Patients in Clinical Remission: Duration (Months): 5 Months
[2]; Patient No. 112*, ACR remission, ESR <30 mm
  Patients in Clinical Remission: Duration (Months): 7 Months
[2]; at 12 months, printed 95% CI—0.35, −2.90, listed as test compound
  Serum albumin: significant improvements
[2]; at 12 months, printed (95%) CI 1.2, 35, listed as test compound
  Blood Urea Nitrogen: significant improvements
[2]; baseline to 12 months
  ESR Mean change: −3.05
[2]; human, in vivo
  Adverse alterations in routine haematology, biochemistry (renal and hepatic) and metabolic parameters: no significant adverse alterations
  HDL/LDL ratio of rheumatic patients after treatment: 0.45
  Laboratory values for SGOT, SGTP, GGT, Serum bilirubin and Serum creatinine: No significant changes
  Side-effects recorded: Minor side-effects
[2]; mean change from baseline
  HDL MEAN CHANGE: −1.57
  HDL/LDL MEAN CHANGE: −6.1
  LDL MEAN CHANGE: 12.7
[2]; one year study
  ACR 50 improvement response (patients responding): 40%
  Patients who satisfied the ACR criteria for remission that also includes the ESR response: 5 patients
[2]; one year study, 20% improvement in ACR factors
  ACR 20 improvement response (patients responding): 80%
[2]; one year study, P<0.05, listed as test compound
  All clinical efficacy measures (ACR core set), overall result in words: significant disease modifying anti-arthritic action
[2]; [4]
  Patients completely asymptomatic as per ACR core set clinical measures (percent): 11.9%
  Patients completely asymptomatic as per ACR core set clinical measures / remission of disease: 10 patients
Gastric mucosa; Dose 200 mg/kg p.o.
  Mean score of Lesion intensity: Nil
Gastric mucosa; rat, in vivo, po, 200 mg/kg
  Average of no. of ulcer per animal: Nil
  No. of animals with ulcer (%): Nil
  Ulcer Index (UI): Nil
[1]; Dose 50 mg/kg
  Anti-inflammatory activity (% Inhibition) in Carrageenan model In 3 Hrs.: 26.49* %
[1]; Dose 100 mg/kg
  Anti-inflammatory activity (% Inhibition) in Carrageenan model In 3 Hrs.: 32.54* %
[1]; Dose 100 mg/kg, listed as test compound
  Anti-inflammatory activity (% Inhibition) in Carrageenan model In 3 Hrs.: 32.44%
[1]; Dose 200 mg/kg
  Anti-inflammatory activity (% Inhibition) in Carrageenan model In 3 Hrs.: 34.44* %
TNF-α
  Concentration of TNF-α in pg/mL Day 0: 36.8 pg/mL
  Concentration of TNF-α in pg/mL Day 13: 45.3 pg/mL
TNF-α; Day 21
  Concentration of TNF-α in pg/mL Day 21: 36.1 pg/mL
TNF-α; Day 21, listed as experimental drug
  Concentration of TNF-α in pg/mL Day 21: inhibits TNF-α
FCA induced arthritis; Dose 50 mg/kg
  Anti-inflammatory activity (% Inhibition) in FCA induced arthritis Day 18: 18.04%
FCA induced arthritis; Dose 50 mg/kg, treatment 13th to 23rd day
  Anti-inflammatory activity (% Inhibition) in FCA induced arthritis Day 23: 29.07* %
FCA induced arthritis; Dose 100 mg/kg
  Anti-inflammatory activity (% Inhibition) in FCA induced arthritis Day 18: 32.38%
FCA induced arthritis; Dose 100 mg/kg, treatment 13th to 23rd day (text values print no day), 100 mg/kg
  Anti-inflammatory activity (% Inhibition) in FCA induced arthritis Day 23: 52.81* %
FCA induced arthritis; Dose 100 mg/kg, treatment 13th to 23rd day (text values print no day), listed as test compound, 100 mg/kg
  Anti-inflammatory activity (% Inhibition) in FCA induced arthritis Day 23: 52% and 56%
FCA induced arthritis; Dose 200 mg/kg
  Anti-inflammatory activity (% Inhibition) in FCA induced arthritis Day 18: 25.41%
FCA induced arthritis; Dose 200 mg/kg, treatment 13th to 23rd day
  Anti-inflammatory activity (% Inhibition) in FCA induced arthritis Day 23: 56.55* %
Cotton pellet Granuloma; Dose 50 mg/kg
  Anti-inflammatory activity (% Inhibition) in Cotton pellet Granuloma: 24.2* %
Cotton pellet Granuloma; Dose 100 mg/kg, 100 mg/kg
  Anti-inflammatory activity (% Inhibition) in Cotton pellet Granuloma: 33.2* %
Cotton pellet Granuloma; Dose 100 mg/kg, listed as test compound, 100 mg/kg
  Anti-inflammatory activity (% Inhibition) in Cotton pellet Granuloma: 32.3%
Cotton pellet Granuloma; Dose 200 mg/kg
  Anti-inflammatory activity (% Inhibition) in Cotton pellet Granuloma: 39.4** %
C-reactive protein
  C-reactive protein After 10 Day Treatment: Negative (Normal range of CRP: up to 6 mg/L. Below this level is considered to be negative)
  C-reactive protein Before Treatment: Negative (Normal range of CRP: up to 6 mg/L. Below this level is considered to be negative)
C-reactive protein; after treatment
  C-reactive protein in FCA chronic arthritis model (in words): decrease in C-reactive protein
